From ChEMBL document CHEMBL4665788, “Development of Nonpeptidic Inverse Agonists of the Ghrelin Receptor (GHSR) Based on the 1,2,4-Triazole Scaffold” (J Med Chem, 2020)
≈ marks a conversion by molar mass, not a printed value. Calls of active or inactive are those of the source. The calls are words filed in the database; no cut-off is given here.

Assays:
[1] = target: T1, Growth hormone secretagogue receptor type 1 (Homo sapiens, UniProt Q92847); experiment: Antagonist activity at SNAP-tagged human GHSR expressed in HEK293 cells assessed as inhibition of ghrelin-induced IP1 accumulation at 10^-5M measured after 30 mins by IP1-d2 derivative based HTRF assay relative to control; type: functional, cell-based; details: filed as antagonist, dose 1.0 10^-5M
T1 sequence (Q92847 whole entry): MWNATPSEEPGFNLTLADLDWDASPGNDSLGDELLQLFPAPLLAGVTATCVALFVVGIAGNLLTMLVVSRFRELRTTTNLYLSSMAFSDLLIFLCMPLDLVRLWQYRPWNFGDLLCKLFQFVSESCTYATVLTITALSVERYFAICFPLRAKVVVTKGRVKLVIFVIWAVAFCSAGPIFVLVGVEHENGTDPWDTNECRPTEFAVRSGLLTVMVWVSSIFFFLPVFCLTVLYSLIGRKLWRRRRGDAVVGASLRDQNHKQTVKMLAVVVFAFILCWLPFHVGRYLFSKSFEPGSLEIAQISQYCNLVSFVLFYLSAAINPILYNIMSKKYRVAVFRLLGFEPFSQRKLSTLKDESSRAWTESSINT

[2] = target: T1, Growth hormone secretagogue receptor type 1; experiment: Antagonist activity at SNAP-tagged human GHSR expressed in HEK293 cells assessed as inhibition of ghrelin-induced IP1 accumulation at 10^-5M measured after 30 mins by IP1-d2 derivative based HTRF assay relative to ghrelin; type: functional, cell-based; details: filed as antagonist, dose 1.0 10^-5M
[3] = target: T1, Growth hormone secretagogue receptor type 1; experiment: Displacement of red-ghrelin from SNAP-tagged human GHSR expressed in HEK293 cells incubated for 3 hrs at 4 degC or for 1 hr at room temperature by HTRF assay; type: cell-based
[4] = target: T1, Growth hormone secretagogue receptor type 1; experiment: Inverse agonist activity at SNAP-tagged human GHSR expressed in HEK293 cells assessed as inhibition of ghrelin-induced IP1 response measured after 30 mins by HTRF assay; type: functional, cell-based
[5] = target: T1, Growth hormone secretagogue receptor type 1; details: HEK293, filed as inverse agonist, dose 1.0 10^-5M, time 30.0 min
[6] = Solubility of the compound in water; type: physicochemical
[7] = target: T1, Growth hormone secretagogue receptor type 1; experiment: Agonist activity at SNAP-tagged human GHSR expressed in HEK293 cells assessed as stimulation of ghrelin-induced increase in IP1 accumulation at 10^-5 M measured after 30 mins by IP1-d2 derivative based HTRF assay relative to ghrelin; type: functional, cell-based; details: filed as agonist, dose 1.0 10^-5M
[8] = target: T1, Growth hormone secretagogue receptor type 1; experiment: Agonist activity at SNAP-tagged human GHSR expressed in HEK293 cells assessed as stimulation of ghrelin-induced increase in IP1 accumulation at 10^-5 M measured after 30 mins by IP1-d2 derivative based HTRF assay relative to control; type: functional, cell-based; details: filed as agonist, dose 1.0 10^-5M
[9] = Toxicity in wild type C57BL6/J mouse assessed as effect on labored movement at 1 nmol, icv injection for 2 mins via cannula; details: in vivo, icv_or_intrathecal
[10] = Toxicity in wild type C57BL6/J mouse assessed as altered breathing rate at 1 nmol, icv injection for 2 mins via cannula; details: in vivo, icv_or_intrathecal
[11] = Toxicity in wild type C57BL6/J mouse assessed as appearance of spiky coat at 1 nmol, icv injection for 2 mins via cannula; details: in vivo, icv_or_intrathecal
Mus musculus = experiment: Suppression of compensatory hyperphagia in wild type C57BL6/J mouse assessed as reduction in cumulative food intake at 1 nmol, icv administered at 8 hrs interval for 48 hrs followed by refeeding at 2 hrs post last dose and measured for 7 days post refeeding; type: functional; set-up: scale not given: the % may be the effect or the level left; details: time 9 day
[12] = Anti-orexigenic activity in wild type C57BL6/J mouse assessed as reduction in ghrelin-induced food intake at 1 nmol, icv administered via cannula for 2 mins pretreated for 15 mins followed by ghrelin stimulation and measured after 2 hrs relative to control; type: functional; set-up: scale not given: the % may be the effect or the level left; details: time 135 min, 2.25 h
[13] = Toxicity in wild type C57BL6/J mouse assessed as reduced activity at 1 nmol, icv injection for 2 mins via cannula; details: in vivo, icv_or_intrathecal
[14] = Toxicity in wild type C57BL6/J mouse assessed as effect on body weight at 1 nmol, icv injection for 2 mins via cannula; details: in vivo, icv_or_intrathecal
[15] = Toxicity in wild type C57BL6/J mouse assessed as sickness-like behavior at 1 nmol, icv injection for 2 mins via cannula; details: in vivo, icv_or_intrathecal
[16] = Toxicity in wild type C57BL6/J mouse assessed as hunched posture at 1 nmol, icv injection for 2 mins via cannula; details: in vivo, icv_or_intrathecal
[17] = Toxicity in wild type C57BL6/J mouse assessed as subdued behavior at 1 nmol, icv injection for 2 mins via cannula; details: in vivo, icv_or_intrathecal
[18] = Toxicity in wild type C57BL6/J mouse assessed as effect on early dark cycle food intake at 1 nmol, icv injection for 2 mins via cannula measured after 5 hrs (reference value: 2591 +/- 197 mg); details: in vivo, icv_or_intrathecal
[19] = target: Growth hormone secretagogue receptor type 1 (Rattus norvegicus) (UniProt O08725); experiment: Inverse agonist activity at GHSR in Wistar rat pancreatic islets assessed as suppression of ghrelin-induced inhibition of glucose-stimulated insulin secretion at 1 uM after 1 hr in presence of glucose; type: tissue-based; details: Pancreas, filed as inverse agonist
Growth hormone secretagogue receptor type 1 (Rattus norvegicus), sequence (O08725 whole entry): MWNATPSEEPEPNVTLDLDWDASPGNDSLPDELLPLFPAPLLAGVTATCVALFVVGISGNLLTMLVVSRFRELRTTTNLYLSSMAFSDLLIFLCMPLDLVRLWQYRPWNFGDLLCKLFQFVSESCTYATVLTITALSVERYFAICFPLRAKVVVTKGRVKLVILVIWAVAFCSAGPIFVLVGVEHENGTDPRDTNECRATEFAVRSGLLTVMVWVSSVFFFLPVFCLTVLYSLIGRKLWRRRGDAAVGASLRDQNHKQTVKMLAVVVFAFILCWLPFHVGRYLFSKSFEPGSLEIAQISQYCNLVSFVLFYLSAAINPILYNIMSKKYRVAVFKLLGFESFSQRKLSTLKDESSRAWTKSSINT

SMILES: COc1ccc(Cn2c(CCc3ccccc3)nnc2[C@@H](Cc2c[nH]c3ccccc23)NC(=O)CNC(=O)C(C)(C)C#N)cc1
- %max [1]: 70%
- %max [2]: 70%

SMILES: COc1ccc(Cn2c(CCc3ccccc3)nnc2[C@@H](Cc2c[nH]c3ccccc23)NC(=O)CNC(=O)/C=C/c2ccc(F)cc2)cc1
- %max [1]: 74%
- %max [2]: 71%

SMILES: COc1ccc(Cn2c(CCc3ccccc3)nnc2[C@@H](Cc2c[nH]c3ccccc23)NC(=O)CNC(=O)/C(C#N)=C/c2ccc(F)cc2)cc1
- Ki [3]: 0.6 nM
- EC50 [4]: 14.2 nM
- Emax [5]: 76%

SMILES: COc1ccc(/C=C(\C#N)C(=O)N[C@@H](C)C(=O)N[C@H](Cc2c[nH]c3ccccc23)c2nnc(CCc3ccccc3)n2Cc2ccc(OC)cc2)cc1
- Ki [3]: 3 nM
- EC50 [4]: 1.4 nM
- Emax [5]: 78%

SMILES: COc1ccc(Cn2c(CCc3c[nH]c4ccccc34)nnc2[C@@H](Cc2c[nH]c3ccccc23)NC(=O)CNC(=O)/C(C#N)=C/c2ccc(O)cc2)cc1
- Ki [3]: 30 nM

SMILES: COc1ccc(Cn2c(CCc3ccccc3)nnc2[C@@H](Cc2c[nH]c3ccccc23)NC(=O)CN)cc1
- %max [1]: 65%
- %max [2]: 65%

SMILES: COc1ccc(Cn2c(CCc3ccccc3)nnc2[C@@H](Cc2c[nH]c3ccccc23)NC(=O)CNC(=O)/C(C#N)=C/c2ccc(N(C)C)cc2)cc1
- Ki [3]: 2.4 nM
- EC50 [4]: 89 nM
- Emax [5]: 78%

SMILES: COc1ccc(/C=C(\C#N)C(=O)NCC(=O)N[C@H](Cc2c[nH]c3ccccc23)c2nnc(CCc3c[nH]c4ccccc34)n2Cc2ccc(OC)cc2)cc1
- solubility ([6]; water, read-out: solubility): 3.8 µg/mL (≈ 5.19 µM)

SMILES: COc1ccc(/C=C(\C#N)C(=O)OCC(=O)N[C@H](Cc2c[nH]c3ccccc23)c2nnc(CCc3ccccc3)n2Cc2ccc(OC)cc2)cc1
- Ki [3]: 13 nM

SMILES: COc1ccc(Cn2c(CCc3ccccc3)nnc2[C@@H](Cc2c[nH]c3ccccc23)NC(=O)CNC(=O)C(C#N)Cc2ccccc2)cc1 (stereo not given in full)
- %max [1]: 72%
- %max [2]: 70%

SMILES: COc1ccc(Cn2c(CCc3ccccc3)nnc2[C@@H](Cc2c[nH]c3ccccc23)NC(=O)CNC(=O)/C(C#N)=C/c2ccc(C)cc2)cc1
- Ki [3]: 1 nM
- EC50 [4]: 21.5 nM
- Emax [5]: 82%

SMILES: CNCC(=O)N[C@H](Cc1c[nH]c2ccccc12)c1nnc(CCc2ccccc2)n1Cc1ccc(OC)cc1
- %max [7]: 76%
- %max [8]: 100%

SMILES: COc1ccc(/C=C(\C#N)C(=O)NCCC(=O)N[C@H](Cc2c[nH]c3ccccc23)c2nnc(CCc3ccccc3)n2Cc2ccc(OC)cc2)cc1
- Ki [3]: 14 nM
- EC50 [4]: 3.6 nM
- Emax [5]: 75%

SMILES: CC(C)C[C@H](NC(=O)[C@H](CC(C)C)NC(=O)[C@@H](Cc1c[nH]c2ccccc12)NC(=O)[C@H](Cc1ccccc1)NC(=O)[C@@H](Cc1cccc2ccccc12)NC(=O)[C@@H](N)CCCCN)C(N)=O
- Activity [9]: Non-Toxic
- Activity [10]: Non-Toxic
- Activity [11]: Non-Toxic
- Activity (Mus musculus): 20.1%
- Activity [12]: 67.6%
- Activity [13]: Non-Toxic
- Activity [14]: Non-Toxic
- Activity [15]: Non-Toxic
- Activity [16]: Non-Toxic
- Activity [17]: Non-Toxic
- Activity [18]: 2623 mg

SMILES: COc1ccc(Cn2c(CCc3ccccc3)nnc2[C@@H](Cc2c[nH]c3ccccc23)NC(=O)CNC(=O)/C(C#N)=C/c2c[nH]c3ccccc23)cc1
- Ki [3]: 6.3 nM
- EC50 [4]: 28 nM
- Emax [5]: 79%

SMILES: COc1ccc(Cn2c(CCc3ccccc3)nnc2[C@@H](Cc2c[nH]c3ccccc23)NC(=O)CNC(=O)C#Cc2ccccc2)cc1
- %max [7]: 69%
- %max [8]: 95%

SMILES: COc1ccc(Cn2c(CCN3CCOCC3)nnc2[C@@H](Cc2c[nH]c3ccccc23)NC(=O)CNC(=O)/C(C#N)=C/c2ccccc2)cc1
- Emax [5]: 49%

SMILES: COc1ccc(Cn2c(CCN3CCOCC3)nnc2[C@@H](Cc2c[nH]c3ccccc23)NC(=O)CNC(=O)/C(C#N)=C/c2ccc(N(C)C)cc2)cc1
- Ki [3]: 6.3 nM
- EC50 [4]: 6 nM
- Emax [5]: 64%

SMILES: CCN(CC)CCc1nnc([C@@H](Cc2c[nH]c3ccccc23)NC(=O)CNC(=O)/C(C#N)=C/c2ccc(OC)cc2)n1Cc1ccc(OC)cc1
- Ki [3]: 10 nM
- EC50 [4]: 35 nM
- Emax [5]: 69%

SMILES: COc1ccc(Cn2c(CCc3ccccc3)nnc2[C@@H](Cc2c[nH]c3ccccc23)NC(=O)CNC(=O)/C(C#N)=C/c2ccc(O)cc2)cc1
- Activity [9]: Non-Toxic
- Activity [10]: Non-Toxic
- Activity [11]: Non-Toxic
- Ki [3]: 3 nM
- Activity (Mus musculus): 12.4%
- Activity [12]: 30.3%
- solubility ([6]; buffer): Soluble
- Activity [13]: Non-Toxic
- Activity [14]: Non-Toxic
- Activity [15]: Non-Toxic
- EC50 [4]: 27 nM
- Activity [16]: Non-Toxic
- Activity [19]: Active
- Activity [17]: Non-Toxic
- Emax [5]: 83%
- Activity [18]: 2179 mg

SMILES: COc1ccc(CC(N)C(=O)NCC(=O)N[C@H](Cc2c[nH]c3ccccc23)c2nnc(CCc3ccccc3)n2Cc2ccc(OC)cc2)cc1 (single isomer, unassigned)
- Ki [3]: 17 nM
- EC50 [4]: 62 nM
- Emax [5]: 43%

SMILES: COc1ccc(/C=C(\C#N)C(=O)NCC(=O)N[C@H](Cc2c[nH]c3ccccc23)c2nnc(CCc3ccccc3)n2Cc2ccc(OC)cc2)cc1
- Ki [3]: 0.5 nM
- EC50 [4]: 50 nM
- Emax [5]: 86%

SMILES: COc1ccc(Cn2c(CCc3ccccc3)nnc2[C@@H](Cc2c[nH]c3ccccc23)NC(=O)CN(C)C)cc1
- %max [7]: 76%
- %max [8]: 96%
